According to PubChem BioAssay AID248 (DTP/NCI, 2004):
Several values for one entry are separate records, joined by “and”; a condition that tells them apart may be missing. Equal values may be shown once. Inconclusive results and toxic doses are left out. Rule as the data show it: active = T/C of 150% or more; inactive = T/C below 125%.

Tested on: L1210 leukemia ip in BDF1 mice, survival T/C
Experiment: NCI In Vivo Anticancer Drug Screen. Data for tumor model L1210 Leukemia (intraperitoneal) in B6D2F1 (BDF1) mice
Details: endpoint: mean survival time, higher = longer survival
Method in brief: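 Ratio derived from survival: compound-dosed mice over vehicle-dosed mice, all bearing a transplantable tumor.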

[1] = dose: 100.0 mg/kg/injection, schedule: Q01DX001 (ip), vehicle: saline
[2] = dose: 200.0 mg/kg/injection, schedule: Q01DX001 (ip), vehicle: saline
[3] = dose: 400.0 mg/kg/injection, schedule: Q01DX001 (ip), vehicle: saline
[4] = dose: 100.0 mg/kg/injection, schedule: Q01DX009 (ip), vehicle: Klucel (hydroxypropylcellulose) (HPC)
[5] = dose: 100.0 mg/kg/injection, schedule: Q04DX003 (ip), vehicle: Klucel (hydroxypropylcellulose) (HPC)
[6] = dose: 200.0 mg/kg/injection, schedule: Q01DX009 (ip), vehicle: Klucel (hydroxypropylcellulose) (HPC)
[7] = dose: 200.0 mg/kg/injection, schedule: Q04DX003 (ip), vehicle: Klucel (hydroxypropylcellulose) (HPC)
[8] = dose: 400.0 mg/kg/injection, schedule: Q01DX009 (ip), vehicle: Klucel (hydroxypropylcellulose) (HPC)
[9] = dose: 400.0 mg/kg/injection, schedule: Q04DX003 (ip), vehicle: Klucel (hydroxypropylcellulose) (HPC)
[10] = dose: 100.0 mg/kg/injection, schedule: Q04DX002 (ip), vehicle: saline
[11] = dose: 200.0 mg/kg/injection, schedule: Q04DX002 (ip), vehicle: saline
[12] = dose: 400.0 mg/kg/injection, schedule: Q04DX002 (ip), vehicle: saline
[13] = dose: 50.0 mg/kg/injection, schedule: Q01DX009 (ip), vehicle: saline with Tween-80
[14] = dose: 100.0 mg/kg/injection, schedule: Q04DX003 (ip), vehicle: saline
[15] = dose: 200.0 mg/kg/injection, schedule: Q04DX003 (ip), vehicle: saline
[16] = dose: 400.0 mg/kg/injection, schedule: Q04DX003 (ip), vehicle: saline
[17] = dose: 100.0 mg/kg/injection, schedule: Q01DX009 (ip), vehicle: saline with Tween-80
[18] = dose: 200.0 mg/kg/injection, schedule: Q01DX009 (ip), vehicle: saline with Tween-80
[19] = dose: 50.0 mg/kg/injection, schedule: Q01DX001 (ip), vehicle: carboxymethylcellulose (CMC)
[20] = dose: 100.0 mg/kg/injection, schedule: Q01DX001 (ip), vehicle: carboxymethylcellulose (CMC)

Measured: T/C

COc1ccc(NP2(=O)OCC(C)([N+](=O)[O-])CO2)cc1 (centres undefined)
inactive: dose: 50.0 mg/kg/injection, schedule: Q01DX001 (ip), vehicle: saline 98 % of control | [1] 102 % of control | [2] 98 % of control | [3] 96 % of control

O=c1c2ccccc2cc2ccccn12
inactive: [4] 100 % of control | [5] 95 % of control | [6] 94 % of control | [7] 97 % of control | [8] 92 % of control | [9] 97 % of control

CC(=O)Cn1c(=O)oc2ccccc2c1=O
inactive: dose: 50.0 mg/kg/injection, schedule: Q04DX003 (ip), vehicle: saline with Tween-80 102 % of control | dose: 100.0 mg/kg/injection, schedule: Q04DX003 (ip), vehicle: saline with Tween-80 108 % of control | dose: 200.0 mg/kg/injection, schedule: Q04DX003 (ip), vehicle: saline with Tween-80 102 % of control

Fc1cnc(OC23CC4CC(CC(C4)C2)C3)nc1OC12CC3CC(CC(C3)C1)C2
inactive: [5] 86 % of control | [7] 88 % of control | [9] 88 % of control

CCOP(=O)(OCC)SC=C(Cl)Cl
inactive: dose: 25.0 mg/kg/injection, schedule: Q04DX002 (ip), vehicle: saline with Tween-80 94 % of control | dose: 50.0 mg/kg/injection, schedule: Q04DX002 (ip), vehicle: saline with Tween-80 91 % of control | dose: 100.0 mg/kg/injection, schedule: Q04DX002 (ip), vehicle: saline with Tween-80 94 % of control and 95 % of control

CC(C)OC(=O)COc1cc(F)c(Cl)cc1Cl
inactive: dose: 100.0 mg/kg/injection, schedule: Q04DX002 (ip), vehicle: Klucel (hydroxypropylcellulose) (HPC) 102 % of control | dose: 200.0 mg/kg/injection, schedule: Q04DX002 (ip), vehicle: Klucel (hydroxypropylcellulose) (HPC) 95 % of control | dose: 400.0 mg/kg/injection, schedule: Q04DX002 (ip), vehicle: Klucel (hydroxypropylcellulose) (HPC) 102 % of control

O=[N+]([O-])c1ccc(S(=O)C2CCCCC2Cl)c([N+](=O)[O-])c1 (centres undefined)
inactive: [4] 111 % of control

O=C(Oc1ccc(Cl)cc1)c1ccccc1
inactive: [4] 95 % of control | [5] 103 % of control | [6] 101 % of control | [7] 105 % of control | [8] 101 % of control | [9] 92 % of control

CCOCCOC(=O)c1ccc(C#N)cc1
inactive: [1] 100 % of control | [2] 97 % of control | [3] 97 % of control

COc1ccc(C)nn1
inactive: [10] 106 % of control | [11] 106 % of control | [12] 122 % of control

O=C(/C=C(/CC(=O)c1ccccc1)C(=O)c1ccccc1)c1ccccc1
inactive: [5] 103 % of control | [7] 95 % of control | [9] 101 % of control

Cn1c([N+](=O)[O-])cnc1/C=[N+](/C)[O-]
inactive: [10] 107 % of control | [11] 100 % of control | [12] 107 % of control

Nc1ncnc2c1ncn2C1OC(COC(=O)C2C3CC4CC(C3)CC2C4)C(O)C1O (centres undefined)
inactive: [1] 104 % of control

C[CH2][Sn]([c]1ccccc1)([c]1ccccc1)[c]1ccccc1
inactive: dose: 12.5 mg/kg/injection, schedule: Q01DX009 (ip), vehicle: saline with Tween-80 97 % of control | dose: 25.0 mg/kg/injection, schedule: Q01DX009 (ip), vehicle: saline with Tween-80 99 % of control | [13] 99 % of control

Cc1c(NCO)c(=O)n(-c2ccccc2)n1C
inactive: [14] 118 % of control | [15] 94 % of control | [16] 112 % of control

BrP(Nc1ccccc1)(c1ccccc1)(c1ccccc1)c1ccccc1
inactive: dose: 10.0 mg/kg/injection, schedule: Q01DX001 (ip), vehicle: acetone 100 % of control | dose: 20.0 mg/kg/injection, schedule: Q01DX001 (ip), vehicle: acetone 101 % of control | dose: 40.0 mg/kg/injection, schedule: Q01DX001 (ip), vehicle: acetone 91 % of control

CSC1C(O)C(CO)OC1n1cnc2c(N)ncnc21 (centres undefined)
inactive: dose: 100.0 mg/kg/injection, schedule: Q01DX005 (ip), vehicle: saline 100 % of control | dose: 200.0 mg/kg/injection, schedule: Q01DX005 (ip), vehicle: saline 106 % of control

O=C(OC1C=CCC=C1)c1cc([N+](=O)[O-])cc([N+](=O)[O-])c1
inactive: dose: 100.0 mg/kg/injection, schedule: Q04DX003 (ip), vehicle: other 101 % of control | dose: 200.0 mg/kg/injection, schedule: Q04DX003 (ip), vehicle: other 101 % of control | dose: 400.0 mg/kg/injection, schedule: Q04DX003 (ip), vehicle: other 94 % of control

CC(C)CNC(=O)Nc1ccc(Cl)c(Cl)c1
inactive: [1] 97 % of control | [2] 95 % of control | [3] 95 % of control

CC12CCC3(CCC4(C)C(=C3C1)CCC1C3(C)CCC(OC5OC(CO)C(O)C(O)C5O)C(C)(C)C3CCC14C)C(=O)O2 (centres undefined)
inactive: [13] 104 % of control | [17] 108 % of control | [18] 114 % of control

NC(N)=NNCCOc1c(Cl)cccc1Cl
inactive: dose: 25.0 mg/kg/injection, schedule: Q01DX001 (ip), vehicle: carboxymethylcellulose (CMC) 116 % of control | [19] 101 % of control | [20] 111 % of control

CCCCOCCOP(=O)(OCCOCCCC)OCCOCCCC
inactive: [5] 98 % of control | [7] 98 % of control | [9] 101 % of control

O=C(Nc1cccc(Cl)c1)Nc1ccc(Cl)c(C(F)(F)F)c1
inactive: [19] 94 % of control | [20] 105 % of control | dose: 200.0 mg/kg/injection, schedule: Q01DX001 (ip), vehicle: carboxymethylcellulose (CMC) 100 % of control | dose: 400.0 mg/kg/injection, schedule: Q01DX001 (ip), vehicle: carboxymethylcellulose (CMC) 102 % of control

CCOC(=O)CC(C)(N)NC(N)=O (centres undefined)
inactive: [17] 98 % of control | [14] 104 % of control | [18] 93 % of control | [15] 106 % of control | dose: 400.0 mg/kg/injection, schedule: Q01DX009 (ip), vehicle: saline with Tween-80 90 % of control | [16] 106 % of control

O=C(O)c1cc(Cc2c[nH]c(=O)[nH]c2=O)ccc1O
inactive: dose: 50.0 mg/kg/injection, schedule: Q01DX005 (ip), vehicle: water 109 % of control | dose: 100.0 mg/kg/injection, schedule: Q01DX005 (ip), vehicle: water 98 % of control | dose: 200.0 mg/kg/injection, schedule: Q01DX005 (ip), vehicle: water 102 % of control

C/C=C\c1ccc(OC(=O)c2ccc([N+](=O)[O-])cc2)c(OC)c1
inactive: dose: 100.0 mg/kg/injection, schedule: Q01DX001 (ip), vehicle: other 97 % of control | dose: 200.0 mg/kg/injection, schedule: Q01DX001 (ip), vehicle: other 106 % of control | dose: 400.0 mg/kg/injection, schedule: Q01DX001 (ip), vehicle: other 94 % of control

Cc1ccc2c(c1)N(CCCN(C)C)c1ccccc1S2
inactive: dose: 12.5 mg/kg/injection, schedule: Q04DX003 (ip), vehicle: saline 102 % of control | dose: 25.0 mg/kg/injection, schedule: Q04DX003 (ip), vehicle: saline 116 % of control

Cc1ccc([N+](=O)[O-])cc1NS(=O)(=O)c1cc(Cl)c(Cl)cc1Cl
inactive: [4] 95 % of control | [6] 108 % of control | [8] 90 % of control
